Experimental data published in patent publication US4698355A, “Anti-hypertensive agents” (University of Miami, priority 1979, dated 1987).
Non-standard residues stand in square brackets, D forms with d. Residues, ends and D or L forms follow the SMILES beside them. No end group written: not given here. *: point of attachment. pGlu = O=C1CC[C@@H](C(=O)O)N1; Bz = O=C(c1ccccc1)*

Experiments:
ACE = conditions: cited from earlier work
human urinary ACE = test: ACE activity assay (Benzoyl-GlyHisLeu substrate); format: biochemical; conditions: 0.05 M Hepes pH 8.0, 37° C.
Text: The role of ACE in the pathogenesis of hypertension has prompted a search for inhibitors of the enzyme that could act as antihypertensive drugs. See for example U.S. Pat. Nos. 3,891,616, 3,947,575, 4,052,511 and 4,053,651. […] 6, 1977, and in scientific articles by Cushman, D. W. et al., Biochemistry 16, 5484 (1977), and by Ondetti, M. et al., Science 196, 441 (1977). […] These factors include the source of enzyme, its purity, the substrate used and its concentration, and the composition of the assay buffer. All I50 data reported herein have been performed with the same assay system and same enzyme (human urinary ACE) and with an approximately 1/2 Km level of substrate and are therefore internally consistent. Discrepancies with data obtained by other workers may be observed. Indeed such discrepancies do exist in the literature, for unknown reasons. See, for example, the I50 values for BPP9a reported by Cushman, D. W., et al., Experientia 29, 1032 (1973) and by Dorer, F. E., et al., Biochim. Biophys. Acta 429, 220 (1976).
ACE activity assay. For most experiments described herein, the enzyme was assayed in 0.05 M Hepes buffer, pH 8.0 containing 0.1 M NaCl and 0.75 M Na2 SO4. […] Enzyme was diluted in the above buffer such that 40 μl buffered enzyme was capable of hydrolyzing 13% of substrate in a 15-minute incubation at 37° C. […]

angiotensin I [1] = test: Oral effectiveness: blood pressure response to angiotensin I in anesthetized rats; format: in vivo, rat; conditions: oral 20 μmol/kg
Protocol: (§1) Rats (210-290 g body weight) were fasted overnight and then anesthetized with intraperitoneal pentobarbital, 50-60 mg/kg. Tracheostomy was performed and the animals were ventilated mechanically. A cannula was inserted into a femoral vein for injection of angiotensin I, and a second cannula was inserted into a common carotid artery for direct measurement of arterial blood pressure. Heparin, 1,000 units, was injected via the femoral vein to prevent coagulation. Blood pressure was measured with a pressure transducer connected to a polygraph. The rats were injected with […] of angiotensin I in 20 μl of 0.9 g % NaCl; an amount of angiotensin I sufficient to raise mean arterial blood pressure by 38 mm Hg. After the responsiveness of a given rat to angiotensin I was established, the named compound at 20 μmol/kg (drug dissolved in 0.15 ml of H2 O plus 10 μl of 1 N NaHCO3), was given via a stomach tube. At timed intervals, the effects of 400 ng/kg of angiotensin I on mean arterial blood pressure were tested.

angiotensin I [2] = test: Intravenous effectiveness: blood pressure response to angiotensin I in anesthetized rats; format: in vivo, rat; conditions: intravenous 2 μmol/kg
Protocol: as §1, with “tested. Results are shown below:” for “tested.”
Anesthetized rats were prepared as described in Example 18. After the control reponse to 400 ng/kg angiotensin I was measured for a given rat, the named compound was administered via a femoral vein. The dose was 2 μmol/kg of the named compound in 15 μl 0.01 N sodium bicarbonate. The results are shown as percent of the control response.

RPPGFSPFR [bradykinin]
Km relative to angiotensin I (competitive substrate) (ACE): lower Km than angiotensin I

CC(C)C[C@H](NC(=O)[C@H](Cc1cnc[nH]1)NC(=O)CNC(=O)c1ccccc1)C(=O)O [Benzoyl-GlyHisLeu] (Bz-Gly-His-Leu-OH)
Km (human urinary ACE): ~200 µM

C[C@H](CSC(=O)[C@H](Cc1ccccc1)NC(=O)[C@@H]1CCC(=O)N1)C(=O)N1CCC[C@H]1C(=O)O [Example 15, N^α - [3-(Pyro-L-glutamyl-L-phenylalanylthio)-2-D-methylpropanoyl]-L-proline]
Blood pressure response to 400 ng/kg of Angiotensin I (angiotensin I [1]; 5 min): 66 % of Control
Blood pressure response to 400 ng/kg of Angiotensin I (angiotensin I [1]; 15 min): 26 % of Control
Blood pressure response to 400 ng/kg of Angiotensin I (angiotensin I [1]; 18 min): 26 % of Control
Blood pressure response to 400 ng/kg of Angiotensin I (angiotensin I [1]; 21 min): 21 % of Control
Blood pressure response to 400 ng/kg of Angiotensin I (angiotensin I [1]; 25 min): 21 % of Control
Blood pressure response to 400 ng/kg of Angiotensin I (angiotensin I [1]; 29 min): 24 % of Control
Blood pressure response to 400 ng/kg of Angiotensin I (angiotensin I [1]; 39 min): 18 % of Control
Blood pressure response to 400 ng/kg of Angiotensin I (angiotensin I [1]; 44 min): 16 % of Control
Blood pressure response to 400 ng/kg of Angiotensin I (angiotensin I [1]; 49 min): 16 % of Control
Blood pressure response to 400 ng/kg of Angiotensin I (angiotensin I [1]; 54 min): 18 % of Control
Blood pressure response to 400 ng/kg of Angiotensin I (angiotensin I [1]; 60 min): 18 % of Control
Blood pressure response to 400 ng/kg of Angiotensin I (angiotensin I [1]; 74 min): 18 % of Control
Blood pressure response to 400 ng/kg of Angiotensin I (angiotensin I [1]; 86 min): 21 % of Control
Blood pressure response to 400 ng/kg of Angiotensin I (angiotensin I [1]; 110 min): 21 % of Control
Blood pressure response to 400 ng/kg of Angiotensin I (angiotensin I [1]; 120 min): 26 % of Control
Blood pressure response to 400 ng/kg of Angiotensin I (angiotensin I [1]; 132 min): 26 % of Control
Blood pressure response to 400 ng/kg of Angiotensin I (angiotensin I [1]; 142 min): 26 % of Control
Blood pressure response to 400 ng/kg of Angiotensin I (angiotensin I [1]; +1 min): 53 % of Control
Blood pressure response to 400 ng/kg angiotensin I (angiotensin I [2]; 5 min): 18 % of control
Blood pressure response to 400 ng/kg angiotensin I (angiotensin I [2]; 11 min): 21 % of control
Blood pressure response to 400 ng/kg angiotensin I (angiotensin I [2]; 14 min): 24 % of control
Blood pressure response to 400 ng/kg angiotensin I (angiotensin I [2]; 17 min): 29 % of control
Blood pressure response to 400 ng/kg angiotensin I (angiotensin I [2]; 20 min): 34 % of control
Blood pressure response to 400 ng/kg angiotensin I (angiotensin I [2]; 24 min): 42 % of control
Blood pressure response to 400 ng/kg angiotensin I (angiotensin I [2]; 32 min): 47 % of control
Blood pressure response to 400 ng/kg angiotensin I (angiotensin I [2]; 43 min): 53 % of control
Blood pressure response to 400 ng/kg angiotensin I (angiotensin I [2]; 49 min): 58 % of control
Blood pressure response to 400 ng/kg angiotensin I (angiotensin I [2]; 56 min): 61 % of control
Blood pressure response to 400 ng/kg angiotensin I (angiotensin I [2]; 71 min): 71 % of control
Blood pressure response to 400 ng/kg angiotensin I (angiotensin I [2]; 76 min): 68 % of control
Blood pressure response to 400 ng/kg angiotensin I (angiotensin I [2]; 88 min): 76 % of control
Blood pressure response to 400 ng/kg angiotensin I (angiotensin I [2]; 99 min): 76 % of control
Blood pressure response to 400 ng/kg angiotensin I (angiotensin I [2]; 109 min): 74 % of control
Blood pressure response to 400 ng/kg angiotensin I (angiotensin I [2]; 125 min): 84 % of control
Blood pressure response to 400 ng/kg angiotensin I (angiotensin I [2]; +1/2 min (30 sec.)): 8 % of control

C[C@H](NC(=O)[C@H](Cc1c[nH]c2ccccc12)NC(=O)[C@H](CCCCN)NC(=O)[C@@H]1CCC(=O)N1)C(=O)N1CCC[C@H]1C(=O)O [BPP5a, <GluLysTrpAlaPro] ([pGlu]KWAP-OH)
Km relative to angiotensin I (competitive substrate) (ACE): lower Km than angiotensin I
